The results in this text go back to ChEMBL document CHEMBL5236574, “Identification of a new and diverse set of Mycobacterium tuberculosis uracil-DNA glycosylase (MtUng) inhibitors using structure-based virtual screening: Experimental validation and molecular dynamics studies” (Bioorg Med Chem Lett, 2022).

Tested on in one assay: not listed separately
Briefly: Inhibition of Mycobacterium tuberculosis uracil-DNA glycosylase expressed in Escherichia coli BL21 (DE3) rosetta cells incubated for 10 sec under shaking condition and measured every 2 mins for 40 mins by fluorescence based assay.
As usually defined, the IC50 is the midpoint of a concentration-inhibition curve. Low readings indicate higher potency, high ones lower potency. `O=c1cc[nH]c(=O)[nH]1` [URACIL]: the 50% inhibitory concentration (IC50) is 2.05 mM.

Target in a further assay: not listed separately
Briefly: Inhibition of Mycobacterium tuberculosis uracil-DNA glycosylase by fluorescence based assay.
`O=C(Nc1c[nH]c(=O)[nH]c1=O)c1cccc(N2C(=O)CCC2=O)c1` yielded an IC50 of 2.12 mM. On the same count and under the same terms, the same measure for `CC(C)(C)[C@H](COc1ccccc1F)NC(=O)c1nc(=O)[nH][nH]1`: 11.3 mM. In the case of `CCC(C)(C)C(=O)O[C@H]1C[C@@H](C)C=C2C=C[C@H](C)[C@H](CC[C@@H]3C[C@@H](O)CC(=O)O3)[C@H]21` [SIMVASTATIN], the IC50 is 1.04 mM. Compound `Cc1ccc(-c2csc3c(=O)n(CC#N)cnc23)cc1` showed an IC50 of 7.93 mM. Still for that read-out and setting: next, `Cc1ccc(CCOc2ccc(C[C@@H]3SC(=O)NC3=O)cc2)nc1`: 8.82 mM; `O=C(NCc1nc2ccc(Cl)cc2[nH]1)c1c[nH]c(=O)[nH]c1=O`: 6.53 mM; `CC(=O)N(CC(O)CO)c1c(I)c(C(=O)NCC(O)CO)c(I)c(C(=O)NCC(O)CO)c1I` (stereo not given) [IOHEXOL]: 0.6 mM. `O=C1CN(/N=C/c2ccc([N+](=O)[O-])o2)C(=O)N1` [NITROFURANTOIN]: the IC50 stood at 0.98 mM. On the same count and under the same terms, the same measure for `COc1ccc(C(=O)Nc2c[nH]c(=O)[nH]c2=O)cc1[N+](=O)[O-]`: 15.3 mM; for `Cc1[nH]c(=O)[nH]c(=O)c1CC(=O)N(Cc1ccc2c(c1)OCO2)Cc1ccccc1F`: 0.14 mM. Consider `CC(C)(Cc1cccc(Cl)c1)C(=O)NCCc1n[nH]c(=O)[nH]1`, for which 4.08 mM corresponded to half-maximal inhibition (IC50).

As for `CC(C)c1ccc(OCC(=O)Nc2c[nH]c(=O)[nH]c2=O)cc1`, the IC50 was determined as 7.63 mM. Same read-out and setting: next, `O=c1cc(Nc2ccc(N3CCCCC3)cc2)[nH]c(=O)[nH]1`: 0.8 mM.

A further assay has as its system Mycobacterium tuberculosis. Briefly: Potency index, ratio of uracil IC50 to test compound IC50 for inhibition of Mycobacterium tuberculosis uracil-DNA glycosylase.
In the case of `Cc1[nH]c(=O)[nH]c(=O)c1CC(=O)N(Cc1ccc2c(c1)OCO2)Cc1ccccc1F`, the Ratio IC50 was found to be 15.
